Measurements as given in ChEMBL document CHEMBL1148426, “Essential structural features of acetogenins: role of hydroxy groups adjacent to the bis-THF rings” (Bioorg Med Chem Lett, 2004).

Key:
[1] = target: Mitochondrial complex I; NADH oxidoreductase (Bos taurus, UniProt P25708+P52505); test: Inhibitory concentration needed to halve the control NADH oxidase activity in bovine heart submitochondrial particles (SMP); type: protein-complex assay
[2] = target: Mitochondrial complex I; NADH oxidoreductase (Bos taurus) (UniProt P25708+P52505); test: Maximum inhibition (2 uM) halve the control NADH oxidase activity in bovine heart submitochondrial particles (SMP); type: protein-complex assay

Chain of Mitochondrial complex I; NADH oxidoreductase (P25708 21-464 limits assumed, other chains not shown): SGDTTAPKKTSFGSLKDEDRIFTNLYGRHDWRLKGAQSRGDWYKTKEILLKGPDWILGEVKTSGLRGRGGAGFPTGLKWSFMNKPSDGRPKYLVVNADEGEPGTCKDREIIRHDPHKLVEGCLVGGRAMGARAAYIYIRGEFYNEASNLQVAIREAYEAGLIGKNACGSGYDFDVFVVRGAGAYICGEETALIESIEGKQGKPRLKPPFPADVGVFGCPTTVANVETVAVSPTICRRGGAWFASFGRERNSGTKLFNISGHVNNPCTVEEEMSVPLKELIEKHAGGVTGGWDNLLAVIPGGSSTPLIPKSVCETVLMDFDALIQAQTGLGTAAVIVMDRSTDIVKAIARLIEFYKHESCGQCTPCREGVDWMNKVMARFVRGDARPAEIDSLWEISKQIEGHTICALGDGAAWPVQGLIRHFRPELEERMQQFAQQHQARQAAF

Row | SMILES | IC50 [1] | inhibition [2]
1 | CCCCCCCCCCC[C@H]1CC[C@H]([C@H]2CC[C@H]([C@H](O)CCCCCCCCCCCCC3=C[C@H](C)OC3=O)O2)O1 | 3.1 nM | –
2 | CCCCCCCCCC[C@@H](O)[C@H]1CC[C@H]([C@H]2CC[C@H](CCCCCCCCCCCCCC3=C[C@H](C)OC3=O)O2)O1 | 2.7 nM | –
3 | CCCCCCCCCCC[C@H]1CC[C@H]([C@H]2CC[C@H](CCCCCCCCCCCCCC3=C[C@H](C)OC3=O)O2)O1 | 85 nM | 85%
4 | CCCCCCCCCC[C@@H](O)[C@H]1CC[C@H]([C@H]2CC[C@H]([C@H](O)CCCCCCCCCCCCC3=C[C@H](C)OC3=O)O2)O1 [ISODESAACETYLUVARICIN] | 0.75 nM | –
